Three compounds from patent US5840684A, “Glycopeptide antibiotic derivatives” (Eli Lilly and Company, priority 1995, dated 1998) can be followed below.

One may read the MIC as the least concentration at which growth counts as inhibited. Higher therefore signals a need for much substance.

In brackets after ≈: the same amount, converted by molar mass.

Test [1] concerns Staphylococcus aureus 446. As to the kind of experiment: broth micro-dilution MIC. The format is cell-based. As for the experimental part:
(§1) The MIC's were determined using a standard broth micro-dilution assay.

Test [2] concerns Staphylococcus aureus SA1199A. As to the kind of experiment: broth micro-dilution MIC. The format is cell-based. As for the experimental part:
as §1
For orientation: Dilution methods test growth across graded concentrations, often in twofold steps.

Test [3] has as its system Streptococcus pyogenes C203. As to the kind of experiment: broth micro-dilution MIC. The format is cell-based. As for the experimental part:
as §1

The subject of test [4] is Entercoccus faecium 180-1. As to the kind of experiment: broth micro-dilution MIC. The format is cell-based. As to the method: as §1
The subject of test [5] is Staphylococcus aureus 447. As to the kind of experiment: broth micro-dilution MIC. The format is cell-based. As to the method: as §1
Test [6] deals with Staphylococcus aureus 491. Description: broth micro-dilution MIC. The format is cell-based. As for the experimental part:
as §1

A further test deals with Entercoccus faecium 276. As to the kind of experiment: broth micro-dilution MIC. The format is cell-based. As to the method: as §1
The subject of test [7] is Staphylococcus aureus 489. Description: broth micro-dilution MIC. The format is cell-based. As for the experimental part:
as §1

For test [8], the system named is Streptococcus pneumoniae P1. As to the kind of experiment: broth micro-dilution MIC. The format is cell-based. As to the method:
(§2) The formula I compounds have in vitro and in vivo activity against Gram-positive pathogenic bacteria. The MIC's were determined using a standard broth micro-dilution assay.

Test [9] deals with Staphylococcus haemolyticus 415. As to the kind of experiment: broth micro-dilution MIC. In kind it is cell-based. As to the method:
as §2

A further test concerns Entercoccus faecium 180. As to the kind of experiment: broth micro-dilution MIC. In kind it is cell-based. The conditions noted are these: Entercoccus faecium 180. As for the experimental part: as §2
For test [10], the system named is Staphylococcus haemolyticus 105. As to the kind of experiment: broth micro-dilution MIC. In kind it is cell-based. As for the experimental part:
as §2

Test [11] concerns Enterococcus gallinarum 245. As to the kind of experiment: broth micro-dilution MIC. The format is cell-based. To be noted: Enterococcus gallinarum 245. As to the method: as §2
The subject of the next test is Entercoccus faecium 2041. As to the kind of experiment: broth micro-dilution MIC. The format is cell-based. To be noted: Entercoccus faecium 2041. As for the experimental part:
as §2

The subject of test [12] is Staphylococcus epidermidis 270. As to the kind of experiment: broth micro-dilution MIC. In kind it is cell-based. As to the method: as §2
Test [13] deals with vancomycin-resistant enterococci. Description: broth micro-dilution, mean geometric MIC. The format is cell-based, Enterococcus faecium and Enterococcus faecalis. To be noted: enterococci, 24-hour incubation.
The subject of test [14] is vancomycin-susceptible enterococci. Description: broth micro-dilution, mean geometric MIC. To be noted: enterococci, 24-hour incubation. In kind it is cell-based, Enterococcus faecium and Enterococcus faecalis.
Test [15] concerns Staphylococcus aureus X778. As to the kind of experiment: broth micro-dilution MIC. In kind it is cell-based. As to the method:
as §1

The subject of test [16] is Staphylococcus aureus SA1199B. In kind it is cell-based. As to the method:
as §1

In test [17] the test system is Staphylococcus aureus S13E. The format is cell-based. As to the method: as §1
For test [18], the system named is Staphylococcus aureus X400. Description: broth micro-dilution MIC. The format is cell-based. As for the experimental part: as §1

As to `CNC(CC(C)C)C(=O)NC1C(=O)NC(CC(N)=O)C(=O)NC2C(=O)NC3C(=O)NC(C(=O)NC(C(=O)O)c4cc(O)cc(O)c4-c4cc3ccc4O)C(OC3CC(C)(N)C(O)C(C)O3)c3ccc(c(Cl)c3)Oc3cc2cc(c3OC2OC(CO)C(O)C(O)C2OC2CC(C)(NCc3ccc(N4CCC(C)CC4)cc3)C(O)C(C)O2)Oc2ccc(cc2Cl)C1O` (stereo not drawn) [Compound 129], the MIC was 2 µg/mL (≈ 1.12 µM) in test [1]; at most 0.06 µg/mL in [2]; at most 0.06 µg/mL in test [3]; at most 0.06 µg/mL in test [4]; 1 µg/mL (≈ 0.562 µM) in test [5]; 0.5 µg/mL (≈ 0.281 µM) in test [6]. Also, the MIC against Entercoccus faecium 276 was 0.125 µg/mL (≈ 0.0702 µM); in [7] it was at most 0.06 µg/mL; in test [8], at most 0.06 µg/mL; in [9] it was 4 µg/mL (≈ 2.25 µM); against Entercoccus faecium 180 it was 4 µg/mL (≈ 2.25 µM); in test [10], 4 µg/mL (≈ 2.25 µM). Moreover, the results for the MIC (in test [11]; in the test on Entercoccus faecium 2041; in test [12]) were 0.125 µg/mL (≈ 0.0702 µM), at most 0.06 µg/mL and 1 µg/mL (≈ 0.562 µM), respectively. The “mean geometric MIC, Vancomycin Resistant Strains” value in test [13] was 27 µg/mL. For the same compound, the “mean geometric MIC, Vancomycin Sensitive Strains” value in [14] turned out to be 1.52 µg/mL.
Consider `CNC(CC(C)C)C(=O)NC1C(=O)NC(CC(N)=O)C(=O)NC2C(=O)NC3C(=O)NC(C(=O)NC(C(=O)O)c4cc(O)cc(O)c4-c4cc3ccc4O)C(OC3CC(C)(N)C(O)C(C)O3)c3ccc(c(Cl)c3)Oc3cc2cc(c3OC2OC(CO)C(O)C(O)C2OC2CC(C)(NCc3ccc(O)c(O)c3)C(O)C(C)O2)Oc2ccc(cc2Cl)C1O` (stereo not drawn) [Compound 145], for which the MIC is 0.5 µg/mL (≈ 0.292 µM) in test [1]; at most 0.06 µg/mL in test [2]; at most 0.06 µg/mL in [3]; at most 0.06 µg/mL in test [4]; 1 µg/mL (≈ 0.583 µM) in [5]; 0.125 µg/mL (≈ 0.0729 µM) in test [15]. The MIC in test [6] was 0.5 µg/mL (≈ 0.292 µM); in the test with Entercoccus faecium 276, 0.125 µg/mL (≈ 0.0729 µM); in test [7] it was at most 0.06 µg/mL; in test [16], at most 0.06 µg/mL; in test [17], 0.125 µg/mL (≈ 0.0729 µM); in test [8] it was at most 0.06 µg/mL. The MIC in [9] turned out to be 8 µg/mL (≈ 4.67 µM); in the test on Entercoccus faecium 180 it was 4 µg/mL (≈ 2.33 µM); in test [10] it was 2 µg/mL (≈ 1.17 µM); in [12] it was 1 µg/mL (≈ 0.583 µM). Besides, in test [14], the “mean geometric MIC, Vancomycin Sensitive Strains” value was 1.3 µg/mL.
Turning to `CNC(CC(C)C)C(=O)NC1C(=O)NC(CC(N)=O)C(=O)NC2C(=O)NC3C(=O)NC(C(=O)NC(C(=O)O)c4cc(O)cc(O)c4-c4cc3ccc4O)C(O)c3ccc(c(Cl)c3)Oc3cc2cc(c3OC2OC(CO)C(O)C(O)C2OC2CC(C)(NCc3cccc4ccccc34)C(O)C(C)O2)Oc2ccc(cc2Cl)C1O` (stereo not drawn) [Compound 180], the MIC is at most 0.06 µg/mL in test [2]; at most 0.06 µg/mL in test [3]; at most 0.06 µg/mL in test [18]; at most 0.06 µg/mL in test [15]; 0.5 µg/mL (≈ 0.315 µM) in [6]; 2 µg/mL (≈ 1.26 µM) against Entercoccus faecium 276. Further, the MIC in test [7] is at most 0.06 µg/mL; in [16] it was at most 0.06 µg/mL; in test [17], at most 0.06 µg/mL; in [8], at most 0.06 µg/mL; in test [9], 2 µg/mL (≈ 1.26 µM); in the test on Entercoccus faecium 180, 8 µg/mL (≈ 5.03 µM). In addition, the MIC in test [10] was 2 µg/mL (≈ 1.26 µM); in test [11], 0.25 µg/mL (≈ 0.157 µM); in the test with Entercoccus faecium 2041, 0.25 µg/mL (≈ 0.157 µM). The “mean geometric MIC, Vancomycin Resistant Strains” value in test [13] was above 128 µg/mL. In addition, the “mean geometric MIC, Vancomycin Sensitive Strains” value in test [14] was 0.71 µg/mL.
